How the values were obtained:
Type in all cases: in vivo
[1] = system: galium (catchweed bedstraw, Galium aparine); experiment: Test C postemergence; details: Galium, post-emergence, 336 h, Postemergence, scale 0 to 100, read-out: Plant response rating, Galium
From the text: (§1) Seeds of plant species selected from blackgrass (Alopecurus myosuroides), Italian ryegrass (Lolium multiflorum), winter wheat (Triticum aestivum), galium (catchweed bedstraw, Galium aparine), corn (Zea mays), large (Lg) crabgrass (Digitaria sanguinalis), giant foxtail (Setaria faberii), johnsongrass (Sorghum halepense), lambsquarters (Chenopodium album), morningglory (Ipomoea coccinea), yellow nutsedge (Cyperus esculentus), pigweed (Amaranthus retroflexus), ragweed (common ragweed, Ambrosia elatior), soybean (Glycine max), barnyardgrass (Echinochloa crus-galli), oilseed rape (Brassica napus), waterhemp (common waterhemp, Amaranthus rudis), and velvetleaf (Abutilon theophrasti) were planted into a blend of loam soil and sand and treated preemergence with test chemicals formulated in a non-phytotoxic solvent mixture which included a surfactant.
(§2) At the same time, plants selected from these crop and weed species and also chickweed (common chickweed, Stellaria media), kochia (Kochia scoparia), and wild oat (Avena fatua), were planted in pots containing Redi-Earth® planting medium (Scotts Company, 14111 Scottslawn Road, Marysville, Ohio 43041) comprising spaghnum peat moss, vermiculite, wetting agent and starter nutrients and treated with postemergence applications of test chemicals formulated in the same manner. Plants ranged in height from 2 to 18 cm (1- to 4-leaf stage) for postemergence treatments. Treated plants and controls were maintained in a greenhouse for 13 to 15 days, after which time all species were compared to controls and visually evaluated. Plant response ratings, summarized in Table C, are based on a scale of 0 to 100 where 0 is no effect and 100 is complete control. A dash (-) response means no test result.

soybean (Glycine max) [2] = experiment: Test C postemergence; details: Glycine max, post-emergence, Postemergence, scale 0 to 100, read-out: Plant response rating, Soybean
From the text: as §1, §2

[3] = system: waterhemp (common waterhemp, Amaranthus rudis); experiment: Test C postemergence; details: Amaranthus tuberculatus, post-emergence, Postemergence, scale 0 to 100, read-out: Plant response rating, Waterhemp
From the text: as §1, §2

corn (Zea mays) [4] = experiment: Test C postemergence; details: Zea mays, post-emergence, 336 h, Postemergence, scale 0 to 100
From the text: as §1, §2

[5] = system: ragweed (common ragweed, Ambrosia elatior); experiment: Test C postemergence; details: Ambrosia artemisiifolia, post-emergence, 336 h, Postemergence, scale 0 to 100, read-out: Plant response rating, Ragweed
From the text: as §1, §2

[6] = system: lambsquarters (Chenopodium album); experiment: Test C postemergence; details: Chenopodium album, post-emergence, 336 h, Postemergence, scale 0 to 100, read-out: Plant response rating, Lambsquarters
From the text: as §1, §2

[7] = system: blackgrass (Alopecurus myosuroides); experiment: Test C preemergence; details: scale 0 to 100
How it was run: (§3)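 Visual ratings were made 13-15 days after treatment in the greenhouse, scored 0-100 against controls, where 100 means complete control. Treatments used a surfactant-containing non-phytotoxic solvent formulation, applied preemergence to seeds in loam-sand soil or postemergence to 2-18 cm plants (1-4 leaves) in peat-based medium.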

[8] = system: Italian ryegrass (Lolium multiflorum); experiment: Test C preemergence; details: scale 0 to 100
How it was run: as §3

[9] = system: oilseed rape (Brassica napus); experiment: Test C preemergence; details: scale 0 to 100
How it was run: as §3

[10] = system: winter wheat (Triticum aestivum); experiment: Test C preemergence; details: scale 0 to 100
How it was run: as §3

soybean (Glycine max) [11] = experiment: Test C preemergence; details: scale 0 to 100
How it was run: as §3

[12] = system: velvetleaf (Abutilon theophrasti); experiment: Test C preemergence; details: scale 0 to 100
How it was run: as §3

[13] = system: pigweed (Amaranthus retroflexus); experiment: Test C preemergence; details: scale 0 to 100
How it was run: as §3

[14] = system: giant foxtail (Setaria faberii); experiment: Test C preemergence; details: scale 0 to 100
How it was run: as §3

[15] = system: waterhemp (common waterhemp, Amaranthus rudis); experiment: Test C preemergence; details: scale 0 to 100
How it was run: as §3

[16] = system: barnyardgrass (Echinochloa crus-galli); experiment: Test C preemergence; details: scale 0 to 100
How it was run: as §3

corn (Zea mays) [17] = experiment: Test C preemergence; details: scale 0 to 100
How it was run: as §3

[18] = system: morningglory (Ipomoea coccinea); experiment: Test C preemergence; details: scale 0 to 100
How it was run: as §3

[19] = system: yellow nutsedge (Cyperus esculentus); experiment: Test C preemergence; details: scale 0 to 100
How it was run: as §3

[20] = system: lambsquarters (Chenopodium album); experiment: Test C preemergence; details: scale 0 to 100
How it was run: as §3

[21] = system: johnsongrass (Sorghum halepense); experiment: Test C preemergence; details: scale 0 to 100
How it was run: as §3

[22] = system: large (Lg) crabgrass (Digitaria sanguinalis); experiment: Test C preemergence; details: scale 0 to 100
How it was run: as §3

SMILES: Fc1cccc(Oc2ncc(Cl)cn2)c1Oc1ccc(Cl)nc1 [Compound 20]
- pest or weed control at 31 g/ha ([1]; 31 g ai/ha): 50%
- pest or weed control at 62 g/ha ([1]; 62 g ai/ha): 50%
- pest or weed control at 125 g/ha ([1]; 125 g ai/ha): 70%
- pest or weed control at 250 g/ha ([1]; 250 g ai/ha): 95%
- plant injury at 31 g/ha (soybean (Glycine max) [2]; 31 g ai/ha): 25%
- plant injury at 62 g/ha (soybean (Glycine max) [2]; 62 g ai/ha): 70%
- plant injury at 125 g/ha (soybean (Glycine max) [2]; 125 g ai/ha): 65%
- plant injury at 250 g/ha (soybean (Glycine max) [2]; 250 g ai/ha): 65%
- pest or weed control at 31 g/ha ([3]; 31 g ai/ha): 85%
- pest or weed control at 62 g/ha ([3]; 62 g ai/ha): 90%
- pest or weed control at 125 g/ha ([3]; 125 g ai/ha): 90%
- pest or weed control at 250 g/ha ([3]; 250 g ai/ha): 95%
- Corn plant response rating (crop injury, 0 = no effect, 100 = complete kill) at 31 g/ha (corn (Zea mays) [4]; 31 g ai/ha): 5%
- Corn plant response rating (crop injury, 0 = no effect, 100 = complete kill) at 62 g/ha (corn (Zea mays) [4]; 62 g ai/ha): 15%
- Corn plant response rating (crop injury, 0 = no effect, 100 = complete kill) at 125 g/ha (corn (Zea mays) [4]; 125 g ai/ha): 20%
- Corn plant response rating (crop injury, 0 = no effect, 100 = complete kill) at 250 g/ha (corn (Zea mays) [4]; 250 g ai/ha): 15%
- pest or weed control at 31 g/ha ([5]; 31 g ai/ha): 20%
- pest or weed control at 62 g/ha ([5]; 62 g ai/ha): 20%
- pest or weed control at 125 g/ha ([5]; 125 g ai/ha): 45%
- pest or weed control at 250 g/ha ([5]; 250 g ai/ha): 60%
- pest or weed control at 31 g/ha ([6]; 31 g ai/ha): 85%
- pest or weed control at 62 g/ha ([6]; 62 g ai/ha): 75%
- pest or weed control at 125 g/ha ([6]; 125 g ai/ha): 75%
- pest or weed control at 250 g/ha ([6]; 250 g ai/ha): 80%

SMILES: FC(F)(F)c1cnc(Oc2c(Br)cccc2Oc2ncc(Cl)cn2)nc1 [Compound 24]
- Plant response rating, Blackgrass ([7]; 31 g ai/ha, Preemergence): 60
- Plant response rating, Blackgrass ([7]; 62 g ai/ha, Preemergence): 95
- Plant response rating, Blackgrass ([7]; 125 g ai/ha, Preemergence): 95
- Plant response rating, Blackgrass ([7]; 250 g ai/ha, preemergence): 95
- Plant response rating, Ryegrass, Italian ([8]; 31 g ai/ha, Preemergence): 55
- Plant response rating, Ryegrass, Italian ([8]; 62 g ai/ha, Preemergence): 90
- Plant response rating, Ryegrass, Italian ([8]; 125 g ai/ha, Preemergence): 95
- Plant response rating, Ryegrass, Italian ([8]; 250 g ai/ha, preemergence): 95
- Plant response rating, Oilseed Rape ([9]; 31 g ai/ha, Preemergence): 80
- Plant response rating, Oilseed Rape ([9]; 62 g ai/ha, Preemergence): 100
- Plant response rating, Oilseed Rape ([9]; 125 g ai/ha, Preemergence): 100
- Plant response rating, Oilseed Rape ([9]; 250 g ai/ha, preemergence): 100
- Plant response rating, Wheat ([10]; 31 g ai/ha, Preemergence): 15
- Plant response rating, Wheat ([10]; 62 g ai/ha, Preemergence): 30
- Plant response rating, Wheat ([10]; 125 g ai/ha, Preemergence): 60
- Plant response rating, Wheat ([10]; 250 g ai/ha, preemergence): 90
- Plant response rating, Soybean (soybean (Glycine max) [11]; 62 g ai/ha, Preemergence): 40
- Plant response rating, Soybean (soybean (Glycine max) [11]; 125 g ai/ha, Preemergence): 50
- Plant response rating, Soybean (soybean (Glycine max) [11]; 250 g ai/ha, preemergence): 85
- Plant response rating, Velvetleaf ([12]; 31 g ai/ha, Preemergence): 40
- Plant response rating, Velvetleaf ([12]; 62 g ai/ha, Preemergence): 85
- Plant response rating, Velvetleaf ([12]; 125 g ai/ha, Preemergence): 90
- Plant response rating, Velvetleaf ([12]; 250 g ai/ha, preemergence): 90
- Plant response rating, Pigweed ([13]; 31 g ai/ha, Preemergence): 100
- Plant response rating, Pigweed ([13]; 62 g ai/ha, Preemergence): 100
- Plant response rating, Pigweed ([13]; 125 g ai/ha, Preemergence): 100
- Plant response rating, Pigweed ([13]; 250 g ai/ha, preemergence): 100
- Plant response rating, Foxtail, Giant ([14]; 31 g ai/ha, Preemergence): 98
- Plant response rating, Foxtail, Giant ([14]; 62 g ai/ha, Preemergence): 98
- Plant response rating, Foxtail, Giant ([14]; 125 g ai/ha, Preemergence): 100
- Plant response rating, Foxtail, Giant ([14]; 250 g ai/ha, preemergence): 100
- Plant response rating, Waterhemp ([15]; 31 g ai/ha, Preemergence): 100
- Plant response rating, Waterhemp ([15]; 62 g ai/ha, Preemergence): 100
- Plant response rating, Waterhemp ([15]; 125 g ai/ha, Preemergence): 100
- Plant response rating, Waterhemp ([15]; 250 g ai/ha, preemergence): 100
- Plant response rating, Barnyardgrass ([16]; 31 g ai/ha, Preemergence): 75
- Plant response rating, Barnyardgrass ([16]; 62 g ai/ha, Preemergence): 100
- Plant response rating, Barnyardgrass ([16]; 125 g ai/ha, Preemergence): 100
- Plant response rating, Barnyardgrass ([16]; 250 g ai/ha, preemergence): 100
- Plant response rating, Corn (corn (Zea mays) [17]; 31 g ai/ha, Preemergence): 5
- Plant response rating, Corn (corn (Zea mays) [17]; 62 g ai/ha, Preemergence): 20
- Plant response rating, Corn (corn (Zea mays) [17]; 125 g ai/ha, Preemergence): 45
- Plant response rating, Corn (corn (Zea mays) [17]; 250 g ai/ha, preemergence): 65
- Plant response rating, Morningglory ([18]; 31 g ai/ha, Preemergence): 25
- Plant response rating, Morningglory ([18]; 62 g ai/ha, Preemergence): 85
- Plant response rating, Morningglory ([18]; 125 g ai/ha, Preemergence): 80
- Plant response rating, Morningglory ([18]; 250 g ai/ha, preemergence): 95
- Plant response rating, Nutsedge, Yellow ([19]; 31 g ai/ha, Preemergence): 10
- Plant response rating, Nutsedge, Yellow ([19]; 62 g ai/ha, Preemergence): 10
- Plant response rating, Nutsedge, Yellow ([19]; 125 g ai/ha, Preemergence): 30
- Plant response rating, Nutsedge, Yellow ([19]; 250 g ai/ha, preemergence): 60
- Plant response rating, Lambsquarters ([20]; 31 g ai/ha, Preemergence): 75
- Plant response rating, Lambsquarters ([20]; 62 g ai/ha, Preemergence): 90
- Plant response rating, Lambsquarters ([20]; 125 g ai/ha, Preemergence): 98
- Plant response rating, Lambsquarters ([20]; 250 g ai/ha, preemergence): 98
- Plant response rating, Johnsongrass ([21]; 31 g ai/ha, Preemergence): 40
- Plant response rating, Johnsongrass ([21]; 62 g ai/ha, Preemergence): 55
- Plant response rating, Johnsongrass ([21]; 125 g ai/ha, Preemergence): 80
- Plant response rating, Johnsongrass ([21]; 250 g ai/ha, preemergence): 100
- Plant response rating, Crabgrass, Large ([22]; 31 g ai/ha, Preemergence): 100
- Plant response rating, Crabgrass, Large ([22]; 62 g ai/ha, Preemergence): 100
- Plant response rating, Crabgrass, Large ([22]; 125 g ai/ha, Preemergence): 100
- Plant response rating, Crabgrass, Large ([22]; 250 g ai/ha, preemergence): 100

From US20170190671A1, “BIS(ARYL)CATECHOL DERIVATIVES AS HERBICIDES” (E I DU PONT DE NEMOURS AND COMPANY, priority 2014, published 2017)
